Values of other authors in patent US9145400B2, “Process for the preparation of form III of vilazodone hydrochloride” (Sandoz AG, priority 2013, dated 2015).
Like-named read-outs stand apart in the source and are kept apart here.

Legend:
[1] = DVS, humidity of about 90%; takes up water only in minimal amounts; per WO 02/102794
[2] = at room temperature

hygroscopicity (water uptake) [1]: non-hygroscopic
thermodynamic stability among polymorphs ([2]; per WO 02/102794 page 20, lines 23-26 and FIG. 27, listed as Vilazodone hydrochloride crystalline form III): thermodynamically most stable form
thermodynamic stability among polymorphs ([2]; per WO 02/102794 page 20, lines 23-26 and FIG. 27, hydrochloride): most thermodynamically stable polymorph
Structure (SMILES): Cl.N#Cc1ccc2[nH]cc(CCCCN3CCN(c4ccc5oc(C(N)=O)cc5c4)CC3)c2c1 [form III of Vilazodone hydrochloride, 5-(4-[4-(5-cyano-1H-indol-3-yl)butyl]piperazin-1-yl)benzofuran-2-carboxamide hydrochloride]
